Earlier results as cited in patent publication US20110268798A1, “ORALLY DISNTEGRATING TABLETS FOR THE TREATMENT OF PAIN” (ADD ADVANCED DRUG DELIVERY TECHNOLOGIES LTD, priority 2009, published 2011).

Columns and labels:
[1] = not given; remark: listed apart in the source

solubility in alcohol (alcohol) | solubility in chloroform (chloroform) | solubility in ether | solubility in water | stability versus pH ([1]; pH) | stability versus temperature ([1]; temperature) | solubility in methylene chloride (methylene chloride) | SMILES | stability in air / moisture ([1]; dry air, moisture)
freely soluble | soluble | soluble | slightly soluble | pH-dependent stability profile | sensitive to temperature | – | CC(=O)Oc1ccccc1C(=O)O [Acetylsalicylic acid, 2(acetyloxy)benzoic acid] | stable in dry air but hydrolyses in contact with moisture to acetic and salicylic acids
– | – | very slightly soluble | sparingly soluble | – | – | very slightly soluble | CC(=O)Nc1ccc(O)cc1 [Acetaminophen, N-(4-hydroxyphenyl)acetamide] | –
